The record followed here is ChEMBL document CHEMBL5252544, “Synthesis and evaluation of biological activities of vibsanin A analogs” (Bioorg Med Chem Lett, 2017).

Calls of active or inactive are those of the source. The calls are words filed in the database; no cut-off is given here.

The target of assay [1] is T1, Protein kinase C (PKC) (Homo sapiens) (UniProt O94806+P41743+P17252+P05129+Q05655+P05771+Q05513+Q02156+P24723+Q15139+Q04759). Put plainly: Activation of PKC in human THP-1 cells assessed as increase in ERK phosphorylation incubated for 15 mins by immunoblotting analysis. The note with it: filed as activator, dose 0.1-10 µM. The format is cell-based.
The target in assay [2] is T1, Protein kinase C (PKC) (Homo sapiens). Put plainly: Activation of PKC in human THP-1 cells assessed as increase in ERK phosphorylation at 10 uM pretreated with PMA for 24 hrs followed by compound addition and measured after 15 mins by immunoblotting analysis. It counts as cell-based. In general terms: In western blotting, separated proteins are transferred to a membrane and probed.

Assay [3] has as its system THP-1. Put plainly: Induction of morphological changes in human THP-1 cells assessed as loss of cell circularity at 10 uM measured after 72 hrs by microscopic analysis. It counts as functional, cell-based.
Assay [4] deals with THP-1. The experiment in a line: Induction of monocytic differentiation in human THP-1 cells assessed as increase in cell size at 10 uM measured after 72 hrs by giemsa staining based microscopic analysis. It counts as functional.
Assay [5] deals with THP-1. The experiment in a line: Induction of monocytic differentiation in human THP-1 cells assessed as decrease in nuclear to cytoplasmic ratio at 10 uM measured after 72 hrs by giemsa staining based microscopic analysis. The format is functional, cell-based.
For assay [6], the system named is THP-1. Put plainly: Induction of monocytic differentiation in human THP-1 cells assessed as high vacuolated cytoplasm at 10 uM measured after 72 hrs by giemsa staining based microscopic analysis. It counts as functional, cell-based.
The subject of another assay is HL-60. The experiment in a line: Activation of ERK in human HL-60 cells assessed as increase in cell differentiation. The format is cell-based. The note with it: filed as activator.
The target in assay [7] is T1, Protein kinase C (PKC) (Homo sapiens). The experiment in a line: Activation of PKC in human THP-1 cells assessed as increase in ERK phosphorylation at 0.1 to 10 uM incubated for 15 mins by immunoblotting analysis. It counts as cell-based. The note with it: dose 0.1-10 µM.
Assay [8] relates to THP-1. The experiment in a line: Cytotoxicity against human THP-1 cells by trypan blue staining based microscopic analysis. It counts as functional, cell-based.
For assay [9], the system named is THP-1. Put plainly: Induction of cell differentiation in human THP-1 cells. The format is functional, cell-based.
Assay [10] has as its target T1, Protein kinase C (PKC) (Homo sapiens). Put plainly: Activation of PKC in human THP-1 cells assessed as increase in ERK phosphorylation at 100 nM incubated for 15 mins by immunoblotting analysis. It counts as cell-based. The note with it: filed as activator.

Turning to `CC(C)=CCC[C@]1(C)/C=C/[C@@H](OC(=O)C=C(C)C)[C@]2(C)O[C@@H]2CC/C(C=O)=C\C1`, in [1], the Activity result was “Dose-Dependent Effect”. In addition, the outcome in assay [2] was inactive. In addition, the outcome with THP-1 [3], in the assay on THP-1 [4], with THP-1 [5], with THP-1 [6] and in the assay on HL-60 was Active.
As for `CC(C)=CCC[C@]1(C)/C=C/[C@@H](OC(=O)C=C(C)C)[C@]2(C)O[C@@H]2CC/C(CO)=C\C1`, the Activity entry in assay [1] was “Dose-Dependent Effect”. In addition, the result with THP-1 [4], in the assay on THP-1 [5], in the assay with THP-1 [6] and with HL-60 was Active.
For `C=C(I)CC[C@H]1O[C@@]1(C)[C@@H](/C=C/[C@](C)(CC=O)CCC=C(C)C)OC(=O)C=C(C)C`, the result in assay [7] was inactive.
With `C=C1CC[C@H]2O[C@@]2(C)[C@H](OC(=O)C=C(C)C)/C=C/[C@@](C)(CCC=C(C)C)C[C@H]1O`, the result in assay [7] was inactive.
Take `C=C1CC[C@H]2O[C@@]2(C)[C@H](OC(=O)C=C(C)C)/C=C/[C@@](C)(CCC=C(C)C)CC1=O`: the outcome (in assay [7]; in the assay with THP-1 [9]) was inactive. Moreover, the outcome in the assay on THP-1 [8] was Active.
Regarding `CCCCCCCCCCCCCC(=O)O[C@@H]1[C@@H](C)[C@@]2(O)[C@@H](C=C(CO)C[C@]3(O)C(=O)C(C)=C[C@@H]23)[C@@H]2C(C)(C)[C@]12OC(C)=O`, the result in [10] was Active.
